Data taken from patent US11976043B1, “3-cyano-2-ethoxy-9-(2-nitrobenzylidene)-4-(2-nitrophenyl)-6,7,8,9-tetrahydro-5H-cyclohepta[b]pyridine as an antimicrobial compound” (KING FAISAL UNIVERSITY, priority 2023, dated 2024).

What was measured:
Conditions in all cases: after 10, 20, 40 and 60 min at all dilutions 1:100, 1:200, 1:400, 1:800
Ps. aeruginosa = test: Antimicrobial testing by agar dilution, Ps. aeruginosa; assay type: cell-based, Pseudomonas aeruginosa
Procedure: (§1) The antimicrobial properties of the 3-cyano-2-ethoxy-9-(2-nitrobenzylidene)-4-(2-nitrophenyl)-6,7,8,9-tetrahydro-5H-cyclohepta[b]pyridine was studied by the method of agar dilution. Test solutions of each compound was prepared in concentration of 1% using dimethylformamide as a solvent then they are diluted in physiological solution to obtain the final experimental dilutions 1:100, 1:200, 1:400, 1:800. The effect of these substances are compared with furacillin in a controlable study. The testing microbes used were gram positive bacteria St. Aereus, gram negative bacteria E. coli, Ps. aeruginosa and Candida albicans fungi were taken.
(§2) The experiments used for this survey were meat-pentonlu agar (EPA) for cultivation of bacteria and Saburo environment for fungi. Each experiment used 1 ml of test solution on each plate 500 min. Add 2 drops of emulsified with microbes feel. All experimental samples were taken from the agar after 10, 20, 40, 60 minutes in the environment on the basis of Patrk planted. Bacteria were cultivated at a temperature of 37° C. for 1 day and the mushroom was kept in a thermostat for […] at a temperature of 28° C. in the. Then results were checked.

Candida albicans = test: Antimicrobial testing by agar dilution, Candida albicans; assay type: cell-based
Procedure: as §1, §2

E. coli = test: Antimicrobial testing by agar dilution, E. coli; assay type: cell-based, Escherichia coli
Procedure: as §1, §2

St. Aereus = test: Antimicrobial testing by agar dilution, St. Aereus; assay type: cell-based, Staphylococcus aureus
Procedure: as §1, §2

Measured: inhibition activity (in words)

CCOc1nc2c(c(-c3ccccc3[N+](=O)[O-])c1C#N)CCCCC2=Cc1ccccc1[N+](=O)[O-] [3-cyano-2-ethoxy-9-(2-nitrobenzylidene)-4-(2-nitrophenyl)-6,7,8,9-tetrahydro-5H-cyclohepta[b]pyridine]
most higher inhibition activity: all assays above
